{"source": "paper PMC7136483", "about": "(Frontiers in Pharmacology, 2020)", "key": {"[1]": {"assay": "Joint parent-metabolite NLME PK model of tamoxifen and endoxifen (structural, statistical and age covariate estimates)", "assay_type": "in vivo, human", "excerpt": "PK parameters for tamoxifen and endoxifen were simultaneously estimated.\nThe statistical model aimed to incorporate four levels of variability around the structural model. Thus, and due to the nature of the database, a nested hierarchy of random-effects components was set up comprising interstudy (ISV), interindividual (IIV), interoccasion (IOV), and residual unexplained variability (RUV) (see Supplementary Figure S1). While ISV and IIV characterize random deviations between different studies and patients, respectively, IOV describes the random variability within an individual patient across different occasions. The RUV captures the remaining variability across all observations.\nIIV was evaluated on all structural PK parameters and implemented using exponential IIV models (Equation 1). Resulting individual PK parameters were assumed to arise from a log-normal distribution in which the ηik values are normally distributed with mean zero and variance estimate ωk2 .\nWhile 27% of the patients had samples collected on one occasion (study day, i.e., one dosing interval = 1 day) only, 73% of patients in the PK database had samples collected on three to four occasions (i.e., 3–4 days) with rich sampling during one occasion (dosing interval) in studies 3–6.\nFor the RUV, a log-transformed both sides approach was applied (Equation 3).\nSince tamoxifen and endoxifen PK were analyzed simultaneously, separate but correlated RUV terms were estimated.\nA study effect was introduced as additional variability term on top of the random individual effect (IIV) (study hierarchically above individual level, see Supplementary Figure S1 and Equation 4) ([Laporte-Simitsidis et al., 2000]),\nThe covariate model was developed using a full covariate model approach ([Tunblad et al., 2008]; [Ravva et al., 2009]; [Gastonguay, 2011]): first, covariates were pre-selected based on specific criteria and introduced simultaneously into a full covariate model (for details see Supplementary Material 1, see section “Covariate Submodel Development”). Secondly, a covariate model refinement step was performed, selecting the most appropriate covariate functions for the preselected covariates, with respect to numerical and statistical evaluation criteria. Finally, the refined full covariate model was evaluated based on physiological plausibility of the estimated effect, statistical significance and clinical relevance criteria using advanced model evaluation techniques (Supplementary Material 1, see section “Advanced Model Evaluation Diagnostics”). To explore and quantify the reduction of unexplained variability upon introduction of covariate effects, the statistical model with the four levels of variability was exploited.\nFurthermore, endoxifen PK parameter values (CL30/F = 5.1 L/h and VENDX/F = 400 L) were informed and used from a clinical study administering endoxifen only ([Ahmad et al., 2010b])."}, "CYP2D6 [2]": {"tested_on": "CYP2D6", "assay": "NLME PK model covariate: CYP2D6 activity score on endoxifen formation", "assay_type": "in vivo, human", "excerpt": "To derive a patient’s CYP2D6 phenotype, the available genotype information, i.e., detected genetic polymorphisms (single nucleotide polymorphisms, SNPs, and copy number variants, CNVs), was translated via three steps: (1) From the reported nucleotide variation (wild-type ‘wt’ or altered nucleotide sequence ‘mut’) to a biallelic genotype, e.g., wt/mut: ^∗1/^∗41; (2) from the genotype to the activity score (AS), e.g., ^∗1/^∗41 → 1.5; (3) From the AS to the ‘traditional’ CYP2D6 phenotype category, e.g., 1.5 → normal metabolizer, gNM. […] Thus, each patient in the PK database was assigned a CYP2D6 activity score (seven AS categories from 0 to 3 in intervals of 0.5) and a respective CYP2D6 phenotype [four categories: poor (gPM, AS: 0), intermediate (gIM, AS: 0.5), normal (gNM, AS:1-2), and ultrarapid (gUM, […]) metabolizer; see Figure 1]. The prefix ‘g’ indicates the phenotype prediction from genotype.\n(§1) Secondly, a covariate model refinement step was performed, selecting the most appropriate covariate functions for the preselected covariates, with respect to numerical and statistical evaluation criteria. Finally, the refined full covariate model was evaluated based on physiological plausibility of the estimated effect, statistical significance and clinical relevance criteria using advanced model evaluation techniques (Supplementary Material 1, see section “Advanced Model Evaluation Diagnostics”). To explore and quantify the reduction of unexplained variability upon introduction of covariate effects, the statistical model with the four levels of variability was exploited.\nCYP2D6 activity score The CYP2D6 AS is a multichotomous covariate with seven ordered categories from 0 to 3 (step size of 0.5). For each patient in the PK database, an AS was derived from the reported CYP2D6 genotype.\nThe AS was introduced as ordered categorical covariate applying a fractional change model with four categories representing the ‘traditional’ CYP2D6 phenotype classes investigating two different grouping types for the intermediate (IM) and normal (NM) metaboliser group (depending on whether AS=1 is classified as IM or NM, see Figure 1 in main text), or with six AS categories only grouping AS 2.5 and 3 (Equation 8). To model the CYP2D6 activity scores, fiveseparate categorical covariate effects (for AS subgroups: 0, 0.5, 1, 1.5 and 2.5-3) were estimated while AS=2 was set as reference category (i.e. for a typical patient with AS=2: CL23/F = θRef). An indicator variable XAS,i was coded as 1 for a patient belonging into the respective AS category or 0 otherwise."}, "CYP2D6 [3]": {"target": "T1, CYP2D6 (Homo sapiens, UniProt P10635)", "T1 construct": "endogenous in cells; host or cells: breast cancer patients (in vivo, clinical PK data)", "T1 sequence (P10635 whole entry)": "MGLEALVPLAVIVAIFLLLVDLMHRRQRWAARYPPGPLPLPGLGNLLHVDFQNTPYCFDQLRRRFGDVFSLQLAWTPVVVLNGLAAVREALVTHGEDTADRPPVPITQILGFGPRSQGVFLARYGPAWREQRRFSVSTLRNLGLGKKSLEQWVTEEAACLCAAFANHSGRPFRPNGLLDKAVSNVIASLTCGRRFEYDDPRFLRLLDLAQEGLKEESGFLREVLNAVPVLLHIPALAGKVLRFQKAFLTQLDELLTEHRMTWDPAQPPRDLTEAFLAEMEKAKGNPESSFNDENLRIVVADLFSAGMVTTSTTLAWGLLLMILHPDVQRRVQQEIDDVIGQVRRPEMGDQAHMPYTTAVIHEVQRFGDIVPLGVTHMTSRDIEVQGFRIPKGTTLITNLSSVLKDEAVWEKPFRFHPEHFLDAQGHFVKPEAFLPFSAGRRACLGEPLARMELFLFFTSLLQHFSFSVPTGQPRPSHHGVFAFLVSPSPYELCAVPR", "assay": "NLME PK model covariate: SSRI (paroxetine/fluoxetine) comedication (CYP2D6 inhibitors)", "assay_type": "in vivo", "settings": "during strong CYP2D6-inhibitor comedication", "procedure": "as §1"}, "[4]": {"settings": "cited from earlier work"}, "[5]": {"set-up": "method as in earlier work", "settings": "ref Johnson et al., 2004, Kisanga et al., Lim et al., 2005, Mürdter et al., 2011, Gjerde et al., 2012; cited from earlier work"}, "[6]": {"set-up": "method as in Ahmad et al., 2010b", "settings": "fixed in model, ref Ahmad et al., 2010b, cited from earlier work"}, "[7]": {"assay": "Clinical PK database of six pooled tamoxifen studies: observed minimum steady-state concentrations"}, "[8]": {"settings": "interindividual variability, final model"}, "[9]": {"settings": "interoccasion variability, final model"}, "[10]": {"settings": "fractional change of endoxifen formation vs AS 2"}, "[11]": {"settings": "20 mg dose group, across all studies, steady-state"}}, "note": "Several values for one entry are separate records, joined by “and”; a condition that tells them apart may be missing. Identical values can stand only once."}
{"smiles": "CC/C(=C(\\c1ccc(O)cc1)c1ccc(OCCNC)cc1)c1ccccc1", "note": "[endoxifen, 4-hydroxy-N-desmethyl-tamoxifen]", "values": [{"measurement": "IIV CL23/F", "setting": "[1]; [8]", "result": 47.2, "unit": "% CV"}, {"measurement": "IIV CL23/F, variance estimate", "setting": "[1]; [8]", "result": 0.201}, {"measurement": "IOV CL23/F, variance estimate", "setting": "[1]; [9]", "result": 0.0289}, {"measurement": "IOV CL23/F", "setting": "[1]; interoccasion variability, final model (SSRI effect included)", "result": 17.1, "unit": "% CV"}, {"measurement": "CL23/F (Ref.)", "setting": "[1]; relative formation of endoxifen, reference patient: CYP2D6 AS 2, 65 years, no rifampicin or SSRI", "result": 0.493, "unit": "L/h"}, {"measurement": "IIV CL23/F before covariate inclusion", "setting": "[1]; without CYP2D6 AS and SSRI covariates", "result": 63.3, "unit": "% CV"}, {"measurement": "IOV CL23/F before considering SSRI effect", "setting": "[1]; without covariate", "result": 26.4, "unit": "% CV"}, {"measurement": "fractional decrease from CL23/F reference value", "setting": "CYP2D6 [2]; AS 1", "result": 32.3, "unit": "%"}, {"measurement": "fractional decrease from CL23/F reference value", "setting": "CYP2D6 [2]; AS 1.5", "result": 21.1, "unit": "%"}, {"measurement": "CL23/F_AS: 0", "setting": "CYP2D6 [2]; [10]", "result": "−0.722"}, {"measurement": "CL23/F_AS: 0.5", "setting": "CYP2D6 [2]; [10]", "result": "−0.510"}, {"measurement": "CL23/F_AS: 1", "setting": "CYP2D6 [2]; [10]", "result": "−0.323"}, {"measurement": "CL23/F_AS: 1.5", "setting": "CYP2D6 [2]; [10]", "result": "−0.211"}, {"measurement": "CL23/F_AS: 2.5-3", "setting": "CYP2D6 [2]; [10]", "result": 0.533}, {"measurement": "reduced endoxifen formation efficiency CL23/F", "setting": "CYP2D6 [2]; intermediate metabolizers (AS: 0.5) vs AS 2", "result": 51.0, "unit": "%"}, {"measurement": "reduced endoxifen formation efficiency CL23/F", "setting": "CYP2D6 [2]; poor metabolizers (AS: 0) vs AS 2", "result": 72.2, "unit": "%"}, {"measurement": "increased CL23/F", "setting": "CYP2D6 [2]; ultrarapid metabolizer (AS ≥ 2.5) vs AS 2", "result": 53.3, "unit": "%"}, {"measurement": "change in endoxifen formation", "setting": "CYP2D6 [3]", "result": "−65", "unit": "%"}, {"measurement": "hazard ratio of the endoxifen exposure-response relationship", "setting": "[4]; ref Madlensky et al. (2011)", "result": 0.71}, {"measurement": "reduced risk of breast cancer recurrence related to endoxifen threshold concentration", "setting": "[4]; ref Madlensky et al., 2011, Saladores et al., 2015", "result": 26, "unit": "%"}, {"measurement": "breast cancer patients not reaching proposed target endoxifen concentrations", "setting": "[4]; tamoxifen standard dosing, ref Madlensky et al., 2011", "result": "~20", "unit": "%"}, {"measurement": "potency relative to parent tamoxifen", "setting": "[5]", "result": 100, "unit": "fold"}, {"measurement": "CL30/F", "setting": "[6]; relative clearance of endoxifen", "result": "5.1 L/h and 5.10 fixed L/h"}, {"measurement": "VENDX/F", "setting": "[6]; relative volume of distribution of endoxifen", "result": "400 L and 400 fixed L"}, {"measurement": "%CVgeom of Css,min", "setting": "[7]; [11]", "result": 84.4, "unit": "%"}, {"measurement": "median Css,min", "setting": "[7]; [11]", "result": 10.7, "unit": "ng/mL"}, {"measurement": "range of Css,min", "setting": "[7]; [11]", "result": "0.70 to 45.5", "unit": "ng/mL"}, {"measurement": "overall risk of subtarget endoxifen concentrations, observed", "setting": "[7]; observed population of PK database, CSS,min below 5.97 ng/mL", "result": 28.9, "unit": "%"}]}
{"smiles": "CC/C(=C(\\c1ccccc1)c1ccc(OCCN(C)C)cc1)c1ccccc1", "note": "[tamoxifen, reference compound]", "values": [{"measurement": "ka", "setting": "[1]; absorption rate constant, oral tamoxifen", "result": 1.78, "unit": "h⁻¹"}, {"measurement": "IIV CL20/F, variance estimate", "setting": "[1]; [8]", "result": 0.148}, {"measurement": "IOV CL20/F, variance estimate", "setting": "[1]; [9]", "result": 0.0222}, {"measurement": "total ISV before covariate introduction", "setting": "[1]; interstudy variability", "result": 31.2, "unit": "% CV"}, {"measurement": "total ISV upon covariate introduction", "setting": "[1]; interstudy variability", "result": 16.1, "unit": "% CV"}, {"measurement": "tlag", "setting": "[1]; lag time", "result": 0.389, "unit": "h"}, {"measurement": "VTAM/F", "setting": "[1]; relative central volume of distribution, reference patient", "result": 1120, "unit": "L"}, {"measurement": "CL20/F (Ref.)", "setting": "[1]; relative clearance of tamoxifen, reference patient: CYP2D6 AS 2, 65 years, no rifampicin or SSRI", "result": 5.77, "unit": "L/h"}, {"measurement": "IOV CL20/F before implementing rifampicin effect", "setting": "[1]; without covariate", "result": 24.9, "unit": "% CV"}, {"measurement": "range of Css,min", "setting": "[7]; [11]", "result": "3.05 to 448", "unit": "ng/mL"}]}
